IC50 data for 28 compounds are collected here from patent publication US9193744B2, “Heterocyclic nuclear hormone receptor modulators” (AbbVie Inc., priority 2012, dated 2015).

Where two headings read alike, the source gives them in different places.

In experiment [1] the target is T1, Glucocorticoid Receptor (GR) (Homo sapiens, UniProt P04150).
T1 construct: purchased Invitrogen P2893
T1 sequence (P04150 1-777): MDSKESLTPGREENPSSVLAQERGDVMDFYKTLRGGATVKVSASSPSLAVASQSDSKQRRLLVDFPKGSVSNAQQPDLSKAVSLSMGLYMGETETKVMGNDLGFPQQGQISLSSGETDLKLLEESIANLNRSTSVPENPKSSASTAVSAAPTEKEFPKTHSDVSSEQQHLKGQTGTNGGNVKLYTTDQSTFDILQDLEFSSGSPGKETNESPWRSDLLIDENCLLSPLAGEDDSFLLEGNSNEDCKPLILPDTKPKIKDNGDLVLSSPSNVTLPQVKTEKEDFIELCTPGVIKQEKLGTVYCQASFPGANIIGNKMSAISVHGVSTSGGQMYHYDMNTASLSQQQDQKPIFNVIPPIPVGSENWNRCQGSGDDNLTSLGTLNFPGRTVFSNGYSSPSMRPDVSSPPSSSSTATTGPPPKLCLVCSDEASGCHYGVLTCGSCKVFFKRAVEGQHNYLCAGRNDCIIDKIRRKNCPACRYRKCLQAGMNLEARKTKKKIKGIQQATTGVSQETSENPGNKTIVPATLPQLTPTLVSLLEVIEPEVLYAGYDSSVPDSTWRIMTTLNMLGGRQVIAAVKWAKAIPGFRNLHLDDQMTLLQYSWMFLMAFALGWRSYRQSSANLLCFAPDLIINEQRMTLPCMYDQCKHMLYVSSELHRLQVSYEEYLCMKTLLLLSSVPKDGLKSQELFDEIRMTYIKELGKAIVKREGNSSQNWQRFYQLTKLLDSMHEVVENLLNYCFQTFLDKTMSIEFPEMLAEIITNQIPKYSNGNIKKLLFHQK
In words: GR Fluorescence Polarization Assay (PolarScreen Glucocorticoid Receptor Competitor Assay, Red). The following applies: fluorescence polarization binding ranges. The method, boiled down: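 Compound displacement of a red-labelled glucocorticoid from GR, read as fluorescence polarization. Tracer, receptor and 1:4-serially diluted compound were left together overnight at 4° C in the kit assay buffer.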
For orientation: Fluorescence polarisation rises when a labelled molecule tumbles more slowly, as on binding a larger partner.

The subject of the next experiment is IL-6. In words: A549 Cell Assay to Measure Inflammation Markers (inhibition of IL-1β-induced IL-6). The following applies: A549 cells, read-out: A549 cell assay. It is filed as cell-based. The method, boiled down: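 A549 cells pre-incubated 1 h with compound (10-point dilution, 0.1% DMSO final) in charcoal-stripped serum medium, then stimulated 4 h with 1 ng/mL IL-1β at 37° C. Supernatant IL-6 measured by MSD immunoassay; IC50 and Emax relative to 1 μM prednisolone as 100% inhibition; viability checked by CellTiter-Glo.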

`N#CC[C@@]1(O)CC[C@@]2(CC3CC3)c3cc4cnn(-c5ccc(F)cc5)c4cc3CCC[C@H]2C1` [Example 67]: the IC50 (in experiment [1]; in the experiment with IL-6) was less than 0.1 µM each time.

With `N#CC[C@@]1(O)CC[C@@]2(Cc3ccccn3)c3cc4cnn(-c5ccncc5)c4cc3CCC[C@H]2C1` [Example 68], the IC50 (in experiment [1]; in the experiment with IL-6) was less than 0.1 µM in each case.

Turning to `N#CC[C@]1(O)CC[C@]2(Cc3ccccn3)c3cc4cnn(-c5ccncc5)c4cc3CCC[C@@H]2C1` [Example 69], the IC50 (in experiment [1]; with IL-6) was less than 0.1 µM each time.

Turning to `CS(=O)(=O)NC[C@@]12CC[C@](O)(C(F)(F)F)C[C@H]1CCCc1cc3c(cnn3-c3ccc(F)cc3)cc12` [Example 74, N-(((3R,4aR,12bS)-9-(4-fluorophenyl)-3-hydroxy-3-(trifluoromethyl)-1,2,3,4,4a,5,6,7,9,12b-decahydrobenzo[6,7]cyclohepta[1,2-f]indazol-12b-yl)methyl)methanesulfonamide], the IC50 (in experiment [1]; in the experiment with IL-6 (Homo sapiens)) was less than 0.1 µM each time.

Turning to `O=S1(=O)CCCN1C[C@@]12CC[C@](O)(C(F)(F)F)C[C@H]1CCCc1cc3c(cnn3-c3ccc(F)cc3)cc12` [Example 75, 2-(((3R,4aR,12bS)-9-(4-fluorophenyl)-3-hydroxy-3-(trifluoromethyl)-1,2,3,4,4a,5,6,7,9,12b-decahydrobenzo[6,7]cyclohepta[1,2-f]indazol-12b-yl)methyl)isothiazolidine 1,1-dioxide], the IC50 (in experiment [1]; in the experiment on IL-6 (Homo sapiens)) was less than 0.1 µM each time.

`OC[C@@]12CC[C@](O)(C(F)(F)F)C[C@H]1CCCc1cc3c(cnn3-c3ccc(F)cc3)cc12` [Example 78, (3R,4aR,12bS)-9-(4-fluorophenyl)-12b-(hydroxymethyl)-3-(trifluoromethyl)-1,2,3,4,4a,5,6,7,9,12b-decahydrobenzo[6,7]cyclohepta[1,2-f]indazol-3-ol]: the IC50 (in experiment [1]; in the experiment on IL-6 (Homo sapiens)) was less than 0.1 µM each time.

For `OC[C@]12CC[C@@](O)(C(F)(F)F)C[C@@H]1CCCc1cc3c(cnn3-c3ccc(F)cc3)cc12` [Example 79], the IC50 in experiment [1] is less than 0.1 µM; in the experiment with IL-6, 0.1 to 1 µM.

Turning to `CC[C@]12CC[C@](O)(C(F)(F)F)C[C@H]1CCCc1c2cc2cnn(-c3ccc(F)cc3)c2c1Br` [Example 92, (3R,4aR,12bS)-8-Bromo-12b-ethyl-9-(4-fluorophenyl)-3-(trifluoromethyl)-1,2,3,4,4a,5,6,7,9,12b-decahydrobenzo[6,7]cyclohepta[1,2-f]indazol-3-ol], the IC50 in experiment [1] is 0.1 to 1 µM; in the experiment on IL-6 (Homo sapiens) it was greater than 10 µM.

For `CC[C@]12CC[C@](O)(C(F)(F)F)C[C@H]1CC=Cc1cc3c(cnn3-c3ccc(F)cc3)cc12` [Example 93, (3R,4aR,12bS)-12b-Ethyl-9-(4-fluorophenyl)-3-(trifluoromethyl)-1,2,3,4,4a,5,9,12b-octahydrobenzo[6,7]cyclohepta[1,2-f]indazol-3-ol], the IC50 in experiment [1] was less than 0.1 µM; with IL-6 (Homo sapiens), greater than 10 µM.

`CC[C@@]1(O)CC[C@@]2(Cc3ccccn3)c3cc4cnn(-c5ccc(F)cc5)c4cc3C(=O)CC[C@H]2C1` [Example 94, (3R,4aS,12bS)-3-Ethyl-9-(4-fluorophenyl)-3-hydroxy-12b-(pyridin-2-ylmethyl)-1,2,3,4,4a,5,6,12b-octahydrobenzo[6,7]cyclohepta[1,2-f]indazol-7(9H)-one]: the IC50 (in experiment [1]; with IL-6 (Homo sapiens)) was less than 0.1 µM throughout.

With `CC[C@@]12CC[C@](O)(C(F)(F)F)C[C@H]1CCCc1c2cc2cnn(-c3ccc(F)cc3)c2c1Br` [Example 102, (3R,4aR,12bR)-8-Bromo-12b-ethyl-9-(4-fluorophenyl)-3-(trifluoromethyl)-1,2,3,4,4a,5,6,7,9,12b-decahydrobenzo[6,7]cyclohepta[1,2-f]indazol-3-ol], the IC50 (in experiment [1]; with IL-6 (Homo sapiens)) was less than 0.1 µM throughout.

As to `CC[C@@]12CC[C@](O)(C(F)(F)F)C[C@H]1CCCc1c2cc2cnn(-c3ccc(F)cc3)c2c1C` [Example 103, (3R,4aR,12bR)-12b-Ethyl-9-(4-fluorophenyl)-8-methyl-3-(trifluoromethyl)-1,2,3,4,4a,5,6,7,9,12b-decahydrobenzo[6,7]cyclohepta[1,2-f]indazol-3-ol], the IC50 (in experiment [1]; in the experiment on IL-6 (Homo sapiens)) was less than 0.1 µM throughout.

For `CC[C@@]12CC[C@](O)(C(F)(F)F)C[C@H]1CCC(=O)c1cc3c(cnn3-c3ccc(F)cc3)cc12` [Example 105, (3R,4aR,12bR)-12b-Ethyl-9-(4-fluorophenyl)-3-hydroxy-3-(trifluoromethyl)-1,2,3,4,4a,5,6,12b-octahydrobenzo[6,7]cyclohepta[1,2-f]indazol-7(9H)-one], the IC50 (in experiment [1]; in the experiment with IL-6 (Homo sapiens)) was less than 0.1 µM each time.

Turning to `CC[C@@]12C[C@H](O)[C@@](O)(C(F)(F)F)C[C@H]1CCCc1cc3c(cnn3-c3ccc(F)cc3)cc12` [Example 108, (2S,3R,4aR,12bR)-12b-Ethyl-9-(4-fluorophenyl)-3-(trifluoromethyl)-1,2,3,4,4a,5,6,7,9,12b-decahydrobenzo[6,7]cyclohepta[1,2-f]indazole-2,3-diol], the IC50 (in experiment [1]; with IL-6 (Homo sapiens)) was less than 0.1 µM in each case.

For the compound `CC#C[C@@]1(O)CC[C@@]2(CC)c3cc4cnn(-c5ccc(F)cc5)c4cc3CCC[C@@H]2C1` [Example 111], the IC50 (in experiment [1]; in the experiment on IL-6) was less than 0.1 µM in each case.

On to `CC#C[C@]1(O)CC[C@]2(CC)c3cc4cnn(-c5ccc(F)cc5)c4cc3CCC[C@H]2C1` [Example 112], for which the IC50 is 0.1 to 1 µM in experiment [1] and less than 0.1 µM in the experiment on IL-6.

`CC[C@@]1(O)CC[C@@]2(CC)c3cc4cnn(-c5ccc(F)cc5)c4cc3CCC[C@@H]2C1` [Example 113, (3R,4aR,12bR)-3,12b-Diethyl-9-(4-fluorophenyl)-1,2,3,4,4a,5,6,7,9,12b-decahydrobenzo[6,7]cyclohepta[1,2-f]indazol-3-ol]: the IC50 (in experiment [1]; in the experiment on IL-6 (Homo sapiens)) was less than 0.1 µM throughout.

As to `CC[C@]1(O)CC[C@]2(CC)c3cc4cnn(-c5ccc(F)cc5)c4cc3CCC[C@H]2C1` [Example 114], the IC50 (in experiment [1]; in the experiment with IL-6) was 0.1 to 1 µM each time.

For `CC[C@]12CC[C@](O)(CN[C@H](C)c3ccccc3)C[C@@H]1CCCc1cc3c(cnn3-c3ccc(F)cc3)cc12` [Example 125, (3R,4aS,12bS)-12b-ethyl-9-(4-fluorophenyl)-3-((((R)-1-phenylethyl)amino)methyl)-1,2,3,4,4a,5,6,7,9,12b-decahydrobenzo[6,7]cyclohepta[1,2-f]indazol-3-ol], the IC50 was 0.1 to 1 µM in experiment [1] and greater than 10 µM in the experiment with IL-6 (Homo sapiens).

With `CC[C@@]12CC[C@@](O)(CN[C@H](C)c3ccccc3)C[C@H]1CCCc1cc3c(cnn3-c3ccc(F)cc3)cc12` [Example 126, (3S,4aR,12bR)-12b-ethyl-9-(4-fluorophenyl)-3-((((R)-1-phenylethyl)amino)methyl)-1,2,3,4,4a,5,6,7,9,12b-decahydrobenzo[6,7]cyclohepta[1,2-f]indazol-3-ol], the IC50 in experiment [1] was less than 0.1 µM; in the experiment with IL-6 (Homo sapiens), greater than 10 µM.

For `CC[C@]12CC[C@@](O)(COC)C[C@H]1CCOc1cc3c(cnn3-c3ccc(F)cc3)cc12` [Example 130], the IC50 in experiment [1] was less than 0.1 µM; in the experiment with IL-6, greater than 10 µM.

In the case of `CC[C@@]12CC[C@](O)(COC)C[C@@H]1CCOc1cc3c(cnn3-c3ccc(F)cc3)cc12` [Example 131], the IC50 (in experiment [1]; with IL-6) was less than 0.1 µM throughout.

Consider `CC[C@]12CC[C@@](O)(COC)C[C@H]1CCOc1cc3c(cnn3-c3ccncc3)cc12` [Example 133], for which the IC50 in experiment [1] is 0.1 to 1 µM; in the experiment on IL-6 (Homo sapiens), greater than 10 µM.

On to `CC[C@@]12CC[C@](O)(COC)C[C@@H]1CCOc1cc3c(cnn3-c3ccncc3)cc12` [Example 134], for which the IC50 (in experiment [1]; in the experiment on IL-6 (Homo sapiens)) was less than 0.1 µM throughout.

Consider `CC[C@@]12CC[C@](O)(COC)C[C@@H]1CCOc1cc3c(cnn3-c3ccnc(OC)c3)cc12` [Example 138], for which the IC50 in experiment [1] was less than 0.1 µM; in the experiment with IL-6, 1 to 10 µM.

`CC[C@@]12CC[C@](O)(COC)C[C@@H]1CCOc1cc3c(cnn3-c3ccnc(C(F)(F)F)c3)cc12` [Example 141]: the IC50 is less than 0.1 µM in experiment [1] and 1 to 10 µM in the experiment with IL-6.

Take `CC[C@@]12CC[C@@](C)(O)C[C@@H]1CCOc1cc3c(cnn3-c3ccnc(C)c3)cc12` [Example 143]: the IC50 (in experiment [1]; in the experiment on IL-6 (Homo sapiens)) was less than 0.1 µM throughout.

Turning to `CC[C@@]12CC[C@](O)(CC#N)C[C@@H]1CCOc1cc3c(cnn3-c3ccnc(C)c3)cc12` [Example 145], the IC50 (in experiment [1]; with IL-6 (Homo sapiens)) was less than 0.1 µM throughout.
